Assay results as given in ChEMBL document CHEMBL1201862, “PubChem BioAssay data set” (2004).
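Values below derive from 48-hour exposures of cells grown in 96-well plates, with endpoints linearly interpolated between the two concentrations bracketing the appropriate inhibition level. Abbreviation: GI50, concentration required for 50% inhibition of growth.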 The source made the active and inactive calls. No stated cut-off is given here; in the data, active = GI50 up to about 1.1 µM and inactive = higher.

What was measured:
Assay in all cases: growth of human tumour cells (NCI), 48 h
[1] = tested on: LOX IMVI
[2] = tested on: SW-620
[3] = tested on: M14
[4] = tested on: A498
[5] = tested on: NCI-H226
[6] = tested on: SF-295
[7] = tested on: MCF7
[8] = tested on: K562
[9] = tested on: SK-OV-3
[10] = tested on: UACC-62
[11] = tested on: RPMI-8226
[12] = tested on: SK-MEL-5
[13] = tested on: NCI-H460
[14] = tested on: SR
[15] = tested on: BT-549
[16] = tested on: HT-29
[17] = tested on: SN12C
[18] = tested on: ACHN
[19] = tested on: UACC-257
[20] = tested on: PC-3

SMILES: c1ccc2c(c1)nnn2C1CCCCO1 (stereo not given)
- GI50 [1]: > 100 µM (inactive)
- GI50 [2]: > 100 µM (inactive)
- GI50 [3]: > 100 µM (inactive)
- GI50 [4]: > 100 µM (inactive)
- GI50 [5]: > 100 µM (inactive)
- GI50 [6]: > 100 µM (inactive)
- GI50 [7]: > 100 µM (inactive)
- GI50 [8]: > 100 µM (inactive)
- GI50 [9]: > 100 µM (inactive)
- GI50 [10]: > 100 µM (inactive)
- GI50 [11]: > 100 µM (inactive)
- GI50 [12]: > 100 µM (inactive)
- GI50 [13]: > 100 µM (inactive)
- GI50 [14]: > 100 µM (inactive)
- GI50 [15]: > 100 µM (inactive)
- GI50 [16]: > 100 µM (inactive)
- GI50 [17]: > 100 µM (inactive)
- GI50 [18]: > 100 µM (inactive)
- GI50 [19]: > 100 µM (inactive)
- GI50 [20]: > 100 µM (inactive)

SMILES: COc1ccc(C(NCCNC(c2ccc(OC)c(OC)c2)c2cc3c(cc2O)OCO3)c2cc3c(cc2O)OCO3)cc1OC (stereo not given)
- GI50 [1]: 1.8 µM (inactive)
- GI50 [2]: 1.29 µM (inactive)
- GI50 [3]: 2.92 µM (inactive)
- GI50 [4]: 7.45 µM (inactive)
- GI50 [5]: 8.02 µM (inactive)
- GI50 [6]: 5.32 µM (inactive)
- GI50 [7]: 1.42 µM (inactive)
- GI50 [8]: 1.49 µM (inactive)
- GI50 [9]: 6.87 µM (inactive)
- GI50 [10]: 2.53 µM (inactive)
- GI50 [11]: 2 µM (inactive)
- GI50 [12]: 7.05 µM (inactive)
- GI50 [13]: 4.35 µM (inactive)
- GI50 [14]: 0.682 µM (active)
- GI50 [15]: 2.12 µM (inactive)
- GI50 [16]: 2.64 µM (inactive)
- GI50 [17]: 1.92 µM (inactive)
- GI50 [18]: 2.64 µM (inactive)
- GI50 [19]: 4.26 µM (inactive)
- GI50 [20]: 2.47 µM (inactive)

SMILES: C[N+](C)(N)CCC[N+](C)(C)N
- GI50 [1]: > 100 µM (inactive)
- GI50 [2]: > 100 µM (inactive)
- GI50 [3]: > 100 µM (inactive)
- GI50 [4]: > 100 µM (inactive)
- GI50 [5]: > 100 µM (inactive)
- GI50 [6]: > 100 µM (inactive)
- GI50 [7]: > 100 µM (inactive)
- GI50 [8]: > 100 µM (inactive)
- GI50 [9]: > 100 µM (inactive)
- GI50 [10]: > 100 µM (inactive)
- GI50 [11]: > 100 µM (inactive)
- GI50 [12]: > 100 µM (inactive)
- GI50 [13]: > 100 µM (inactive)
- GI50 [14]: > 100 µM (inactive)
- GI50 [15]: > 100 µM (inactive)
- GI50 [16]: > 100 µM (inactive)
- GI50 [17]: > 100 µM (inactive)
- GI50 [18]: > 100 µM (inactive)
- GI50 [19]: > 100 µM (inactive)
- GI50 [20]: > 100 µM (inactive)

SMILES: CCCCCCCCCCCC(=O)OC[C@@H](C[As](=O)(O)O)OC(=O)CCCCCCCCCCC
- GI50 [1]: 4.24 µM (inactive)
- GI50 [2]: 15 µM (inactive)
- GI50 [3]: 2.49 µM (inactive)
- GI50 [4]: 11.9 µM (inactive)
- GI50 [5]: 16.4 µM (inactive)
- GI50 [6]: 13.2 µM (inactive)
- GI50 [7]: 2.8 µM (inactive)
- GI50 [8]: 5.75 µM (inactive)
- GI50 [9]: 12.4 µM (inactive)
- GI50 [10]: 2.52 µM (inactive)
- GI50 [11]: 6.87 µM (inactive)
- GI50 [12]: 1.82 µM (inactive)
- GI50 [13]: 3.61 µM (inactive)
- GI50 [14]: 7.36 µM (inactive)
- GI50 [15]: 3.48 µM (inactive)
- GI50 [16]: 9.82 µM (inactive)
- GI50 [17]: 7 µM (inactive)
- GI50 [18]: 3.01 µM (inactive)
- GI50 [19]: 16.4 µM (inactive)
- GI50 [20]: 2.43 µM (inactive)

SMILES: CC(=O)OCC1=C(C)C[C@H]([C@@H](COC(C)=O)C2CCC3C4C[C@H]5O[C@]56CC=CC(=O)[C@]6(C)C4CC[C@@]32C)OC1=O (stereo not given in full)
- GI50 [1]: 0.122 µM (active)
- GI50 [2]: 0.115 µM (active)
- GI50 [3]: 0.188 µM (active)
- GI50 [4]: 0.624 µM (active)
- GI50 [5]: 0.598 µM (active)
- GI50 [6]: 1.19 µM (inactive)
- GI50 [7]: 0.00955 µM (active)
- GI50 [8]: 0.0106 µM (active)
- GI50 [9]: 1.79 µM (inactive)
- GI50 [10]: 0.258 µM (active)
- GI50 [11]: 0.0393 µM (active)
- GI50 [12]: 0.269 µM (active)
- GI50 [13]: 0.929 µM (active)
- GI50 [14]: 0.005 µM (active)
- GI50 [15]: 0.26 µM (active)
- GI50 [16]: 0.123 µM (active)
- GI50 [17]: 0.444 µM (active)
- GI50 [18]: 0.302 µM (active)
- GI50 [19]: 0.302 µM (active)
- GI50 [20]: 0.417 µM (active)

SMILES: N/N=C(/CC(O)(C(F)(F)F)C(F)(F)F)c1ccccc1
- GI50 [1]: > 10 µM (inactive)
- GI50 [2]: > 10 µM (inactive)
- GI50 [3]: > 10 µM (inactive)
- GI50 [4]: > 10 µM (inactive)
- GI50 [5]: > 10 µM (inactive)
- GI50 [6]: > 10 µM (inactive)
- GI50 [7]: > 10 µM (inactive)
- GI50 [8]: > 10 µM (inactive)
- GI50 [9]: > 10 µM (inactive)
- GI50 [10]: > 10 µM (inactive)
- GI50 [11]: > 10 µM (inactive)
- GI50 [12]: > 10 µM (inactive)
- GI50 [13]: > 10 µM (inactive)
- GI50 [14]: > 10 µM (inactive)
- GI50 [15]: > 10 µM (inactive)
- GI50 [16]: > 10 µM (inactive)
- GI50 [17]: > 10 µM (inactive)
- GI50 [18]: > 10 µM (inactive)
- GI50 [19]: > 10 µM (inactive)
- GI50 [20]: > 10 µM (inactive)

SMILES: COc1ccccc1NC(=S)N/N=C(/c1ccccc1)c1ccccn1
- GI50 [1]: 0.0254 µM (active)
- GI50 [2]: 0.021 µM (active)
- GI50 [3]: < 0.0249 µM (active)
- GI50 [4]: 1.38 µM (inactive)
- GI50 [5]: 0.146 µM (active)
- GI50 [6]: 0.261 µM (active)
- GI50 [7]: 0.0228 µM (active)
- GI50 [8]: < 0.0128 µM (active)
- GI50 [9]: 0.0771 µM (active)
- GI50 [10]: 0.273 µM (active)
- GI50 [11]: 0.0299 µM (active)
- GI50 [12]: 0.0904 µM (active)
- GI50 [13]: 0.158 µM (active)
- GI50 [14]: < 0.0206 µM (active)
- GI50 [15]: 2.15 µM (inactive)
- GI50 [16]: 0.0101 µM (active)
- GI50 [17]: 0.685 µM (active)
- GI50 [18]: 0.0257 µM (active)
- GI50 [19]: < 0.0167 µM (active)
- GI50 [20]: < 0.0142 µM (active)

SMILES: Cc1cc(N(CCC#N)CCC#N)ccc1C(=N/NC(=O)c1cc(Cl)ccc1O)/N=N/c1cccc([N+](=O)[O-])c1
- GI50 [1]: 15.2 µM (inactive)
- GI50 [2]: 39.3 µM (inactive)
- GI50 [3]: 30.4 µM (inactive)
- GI50 [4]: 15.5 µM (inactive)
- GI50 [5]: 25.1 µM (inactive)
- GI50 [6]: 35.9 µM (inactive)
- GI50 [7]: 16.7 µM (inactive)
- GI50 [8]: 22 µM (inactive)
- GI50 [9]: 34 µM (inactive)
- GI50 [10]: 14.1 µM (inactive)
- GI50 [11]: 12.4 µM (inactive)
- GI50 [12]: 18.1 µM (inactive)
- GI50 [13]: 25 µM (inactive)
- GI50 [14]: 12.6 µM (inactive)
- GI50 [15]: 22.4 µM (inactive)
- GI50 [16]: 26.7 µM (inactive)
- GI50 [17]: 28.3 µM (inactive)
- GI50 [18]: 35.5 µM (inactive)
- GI50 [19]: 31.2 µM (inactive)
- GI50 [20]: 22.1 µM (inactive)

SMILES: CC[C@]12C=CCN3CCC4(c5cc(/N=N/c6ccc([N+](=O)[O-])cc6)c(OC)cc5N(C)[C@H]4[C@@](O)(C(=O)OC)[C@@H]1OC(C)=O)[C@@H]32 (stereo not given in full)
- GI50 [1]: 16.3 µM (inactive)
- GI50 [2]: 2.56 µM (inactive)
- GI50 [3]: 15.5 µM (inactive)
- GI50 [4]: 14.1 µM (inactive)
- GI50 [5]: 5.5 µM (inactive)
- GI50 [6]: 10.6 µM (inactive)
- GI50 [7]: 11.6 µM (inactive)
- GI50 [8]: 6.32 µM (inactive)
- GI50 [9]: 18 µM (inactive)
- GI50 [10]: 17.2 µM (inactive)
- GI50 [11]: 3.48 µM (inactive)
- GI50 [12]: 12.4 µM (inactive)
- GI50 [13]: 19.8 µM (inactive)
- GI50 [14]: 9.71 µM (inactive)
- GI50 [15]: 72.4 µM (inactive)
- GI50 [16]: 10.4 µM (inactive)
- GI50 [17]: 23.8 µM (inactive)
- GI50 [18]: 15 µM (inactive)
- GI50 [19]: 14.7 µM (inactive)
- GI50 [20]: 4.26 µM (inactive)

SMILES: O=c1oc2ccccc2n1CCN1CCCCC1
- GI50 [1]: > 100 µM (inactive)
- GI50 [2]: > 100 µM (inactive)
- GI50 [3]: > 100 µM (inactive)
- GI50 [4]: > 100 µM (inactive)
- GI50 [5]: > 100 µM (inactive)
- GI50 [6]: > 100 µM (inactive)
- GI50 [7]: > 100 µM (inactive)
- GI50 [8]: > 100 µM (inactive)
- GI50 [9]: > 100 µM (inactive)
- GI50 [10]: > 100 µM (inactive)
- GI50 [11]: > 100 µM (inactive)
- GI50 [12]: > 100 µM (inactive)
- GI50 [13]: > 100 µM (inactive)
- GI50 [14]: > 100 µM (inactive)
- GI50 [15]: > 100 µM (inactive)
- GI50 [16]: > 100 µM (inactive)
- GI50 [17]: > 100 µM (inactive)
- GI50 [18]: > 100 µM (inactive)
- GI50 [19]: > 100 µM (inactive)
- GI50 [20]: > 100 µM (inactive)
